# Columns and labels:
# Assay type in all cases: cell-based
# NCI-H526 cell line = assay: Cell viability assay for H526 cell (EZ-Cytox); conditions: Homo sapiens, NCI-H526, 120 h; H526 cells, 5 days, 3000 nM to 0.46 nM
# Outline: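 Read-out was EZ-Cytox colorimetric absorbance at 450 nm, taken after brief plate shaking, with IC50 derived. Before reading, H526 cells had been cultured with test compound for 5 days.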
# MRC-5 cell line = assay: Cell viability assay for MRC-5 cell line (EZ-Cytox); conditions: Homo sapiens, MRC5, 120 h; MRC-5 normal cell line, 5 days, 10000 nM to 1.52 nM; N.D. = no cytotoxicity until 10 μM; read-out: Activity: IC50 value of Exemplary Compound to MRC-5 cell line
# Protocol: 4. Cell Viability Assay for MRC-5 Cell Line
# (1) Culture of MRC-5 Cell Line
# Passage of cultured cells was maintained within P15.
# (2) Treatment of Compounds of the Present Invention
# Then, it was cultured in 37° C.
# (3) Cytotoxicity Experiment
# CO2 incubator for 4 hours.
# PLK1 = biological target: T1, PLK1 (Homo sapiens, UniProt P53350); assay: Luciferase assay for PLK1 in HeLa LgBit (Plk1-HiBit KI) cell line; conditions: 300 nM compound, luminescence after 9 hours
# T1 construct: endogenous in cells; host or cells: HeLa LgBit (Plk1-HiBit KI): HeLa stably expressing LgBit, with a CRISPR/Cas9 knock-in of HiBit at the endogenous PLK1 locus
# T1 sequence (P53350 whole entry): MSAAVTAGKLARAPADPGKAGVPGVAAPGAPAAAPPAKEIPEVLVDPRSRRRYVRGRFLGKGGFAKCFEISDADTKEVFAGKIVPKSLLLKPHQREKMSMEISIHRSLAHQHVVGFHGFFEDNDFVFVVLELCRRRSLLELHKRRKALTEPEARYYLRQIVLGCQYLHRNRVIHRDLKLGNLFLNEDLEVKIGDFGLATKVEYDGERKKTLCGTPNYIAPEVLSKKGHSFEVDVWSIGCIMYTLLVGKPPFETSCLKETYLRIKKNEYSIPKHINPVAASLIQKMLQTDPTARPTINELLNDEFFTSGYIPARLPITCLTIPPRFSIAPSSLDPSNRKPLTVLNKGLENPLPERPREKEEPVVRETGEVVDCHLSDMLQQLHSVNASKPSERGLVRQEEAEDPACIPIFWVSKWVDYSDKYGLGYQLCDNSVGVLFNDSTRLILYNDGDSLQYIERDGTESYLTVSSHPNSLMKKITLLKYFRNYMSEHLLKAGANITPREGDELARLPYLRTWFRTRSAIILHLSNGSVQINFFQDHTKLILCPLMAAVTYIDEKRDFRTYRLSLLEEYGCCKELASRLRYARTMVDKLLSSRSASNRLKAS
# Outline: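 Luminescence, followed in real time after adding compound at 300 nM and Endurazine substrate, is reported relative to DMSO-treated wells. Cells are a HeLa LgBit line with a Plk1-HiBit knock-in, synchronized by 2 mM thymidine for 24 h, released, and cultured 18 h before treatment.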
Activity: ratio of the luminescense value of each Exemplary Compound treatment group to DMSO treatment group (PLK1),Structure (SMILES),IC50 (NCI-H526 cell line),IC50 (MRC-5 cell line)
++ (++<0.6),"Cc1cc(C(=O)NC2CCN(C(=O)CCN3CCN(c4cccc5c4C(=O)N(C4CCC(=O)NC4=O)C5=O)CC3)CC2)ccc1Nc1ncc2c(n1)N(C1CCCC1)CC(F)(F)C(=O)N2C (stereo not drawn) [Compound 71, 4-((9-cyclopentyl-7,7-difluoro-5-methyl-6-oxo-6,7,8,9-tetrahydro-5H-pyrimido[4,5-b][1,4]diazepin-2-yl)amino)-N-(1-(3-(4-(2-(2,6-dioxopiperidin-3-yl)-1,3-dioxoisoindolin-4-yl)piperazin-1-yl)propanoyl)piperidin-4-yl)-3-methylbenzamide]",< 0.05 µM,> 10 µM
+++ (+++: <0.3),"COc1cc(C(=O)NC2CCN(C(=O)COC3CCN(c4cccc5c4C(=O)N(C4CCC(=O)NC4=O)C5=O)CC3)CC2)ccc1Nc1ncc2c(n1)N(C1CCCC1)CC(F)(F)C(=O)N2C (stereo not drawn) [Compound 79, 4-((9-cyclopentyl-7,7-difluoro-5-methyl-6-oxo-6,7,8,9-tetrahydro-5H-pyrimido[4,5-b][1,4]diazepin-2-yl)amino)-N-(1-(2-((1-(2-(2,6-dioxopiperidin-3-yl)-1,3-dioxoisoindolin-4-yl)piperidin-4-yl)oxy)acetyl)piperidin-4-yl)-3-methoxybenzamide]",< 0.1 µM,> 10 µM
++ (++<0.6),"COc1cc(C(=O)N2CCN(CCCCN3CCN(c4ccc5c(c4)C(=O)N(C4CCC(=O)NC4=O)C5=O)CC3)CC2)ccc1Nc1ncc2c(n1)N(C1CCCC1)CC(F)(F)C(=O)N2C (stereo not drawn) [Compound 91, 5-(4-(4-(4-(4-((9-cyclopentyl-7,7-difluoro-5-methyl-6-oxo-6,7,8,9-tetrahydro-5H-pyrimido[4,5-b][1,4]diazepin-2-yl)amino)-3-methoxybenzoyl)piperazin-1-yl)butyl)piperazin-1-yl)-2-(2,6-dioxopiperidin-3-yl)isoindoline-1,3-dione]",< 0.4 µM,> 10 µM
++ (++<0.6),"COc1cc(C(=O)NN2CCC(CCN3CCN(c4ccc5c(c4)C(=O)N(C4CCC(=O)NC4=O)C5=O)CC3)C2)ccc1Nc1ncc2c(n1)N(C1CCCC1)CC(F)(F)C(=O)N2C (stereo not drawn) [Compound 149, 4-((9-cyclopentyl-7,7-difluoro-5-methyl-6-oxo-6,7,8,9-tetrahydro-5H-pyrimido[4,5-b][1,4]diazepin-2-yl)amino)-N-(3-(2-(4-(2-(2,6-dioxopiperidin-3-yl)-1,3-dioxoisoindolin-5-yl)piperazin-1-yl)ethyl)pyrrolidin-1-yl)-3-methoxybenzamide]",< 0.05 µM,> 10 µM

# The next lines start with the compound.
Structure (SMILES),Activity: ratio of the luminescense value of each Exemplary Compound treatment group to DMSO treatment group (PLK1),IC50 (NCI-H526 cell line),IC50 (MRC-5 cell line)
"COc1cc(C(=O)NC2CCN(C(=O)CCCNc3cccc4c3C(=O)N(C3CCC(=O)NC3=O)C4=O)CC2)ccc1Nc1ncc2c(n1)N(C1CCCC1)CC(F)(F)C(=O)N2C (stereo not drawn) [Compound 25, 4-((9-cyclopentyl-7,7-difluoro-5-methyl-6-oxo-6,7,8,9-tetrahydro-5H-pyrimido[4,5-b][1,4]diazepin-2-yl)amino)-N-(1-(4-((2-(2,6-dioxopiperidin-3-yl)-1,3-dioxoisoindolin-4-yl)amino)butanoyl)piperidin-4-yl)-3-methoxybenzamide]",++ (++<0.6),< 0.05 µM,> 10 µM
"COc1cc(C(=O)NN2CCN(C3CN(c4ccc5c(c4)C(=O)N(C4CCC(=O)NC4=O)C5=O)C3)CC2)ccc1Nc1ncc2c(n1)N(C1CCCC1)CC(F)(F)C(=O)N2C (stereo not drawn) [Compound 201, 4-((9-cyclopentyl-7,7-difluoro-5-methyl-6-oxo-6,7,8,9-tetrahydro-5H-pyrimido[4,5-b][1,4]diazepin-2-yl)amino)-N-(4-(1-(2-(2,6-dioxopiperidin-3-yl)-1,3-dioxoisoindolin-5-yl)azetidin-3-yl)piperazin-1-yl)-3-methoxybenzamide]",+++ (+++: <0.3),< 0.05 µM,> 10 µM
"COc1cc(C(=O)N[C@H]2CC[C@H](N3CCN(CCC4CCN(c5cccc6c5C(=O)N(C5CCC(=O)NC5=O)C6=O)CC4)CC3)CC2)c(F)cc1Nc1ncc2c(n1)N(C1CCCC1)CC(F)(F)C(=O)N2C (stereo partly drawn) [Compound 114, 4-((9-cyclopentyl-7,7-difluoro-5-methyl-6-oxo-6,7,8,9-tetrahydro-5H-pyrimido[4,5-b][1,4]diazepin-2-yl)amino)-N-((1r,4r)-4-(4-(2-(1-(2-(2,6-dioxopiperidin-3-yl)-1,3-dioxoisoindolin-4-yl)piperidin-4-yl)ethyl)piperazin-1-yl)cyclohexyl)-2-fluoro-5-methoxybenzamide]",++ (++<0.6),< 0.2 µM,> 10 µM
"COc1cc(C(=O)N[C@H]2CC[C@H](N(C)CC3CCN(c4ccc5c(c4)C(=O)N(C4CCC(=O)NC4=O)C5=O)CC3)CC2)ccc1Nc1ncc2c(n1)N(C(C)C)CC(F)(F)C(=O)N2C (stereo partly drawn) [Compound 153, 4-((7,7-difluoro-9-isopropyl-5-methyl-6-oxo-6,7,8,9-tetrahydro-5H-pyrimido[4,5-b][1,4]diazepin-2-yl)amino)-N-((1r,4r)-4-(((1-(2-(2,6-dioxopiperidin-3-yl)-1,3-dioxoisoindolin-5-yl)piperidin-4-yl)methyl)(methyl)amino)cyclohexyl)-3-methoxybenzamide]",++ (++<0.6),< 0.05 µM,15.8 µM
"COc1cc(C(=O)NC2CCN(C(=O)CC3CCN(c4ccc5c(c4)C(=O)N(C4CCC(=O)NC4=O)C5=O)C3)CC2)c(F)cc1Nc1ncc2c(n1)N(C1CCCC1)CC(F)(F)C(=O)N2C (stereo not drawn) [Compound 45, 4-((9-cyclopentyl-7,7-difluoro-5-methyl-6-oxo-6,7,8,9-tetrahydro-5H-pyrimido[4,5-b][1,4]diazepin-2-yl)amino)-N-(1-(2-(1-(2-(2,6-dioxopiperidin-3-yl)-1,3-dioxoisoindolin-5-yl)pyrrolidin-3-yl)acetyl)piperidin-4-yl)-2-fluoro-5-methoxybenzamide]",++ (++<0.6),< 0.1 µM,> 10 µM
"COc1cc(C(=O)NN2CCN(C(=O)CCC3CCN(c4ccc5c(c4)CN(C4CCC(=O)NC4=O)C5=O)CC3)CC2)ccc1Nc1ncc2c(n1)N(C(C)C)CC(F)(F)C(=O)N2C (stereo not drawn) [Compound 59, 4-((7,7-difluoro-9-isopropyl-5-methyl-6-oxo-6,7,8,9-tetrahydro-5H-pyrimido[4,5-b][1,4]diazepin-2-yl)amino)-N-(4-(3-(1-(2-(2,6-dioxopiperidin-3-yl)-1-oxoisoindolin-5-yl)piperidin-4-yl)propanoyl)piperazin-1-yl)-3-methoxybenzamide]",++ (++<0.6),< 0.03 µM,> 10 µM
"COc1cc(C(=O)NN2CCC(N3CC4(CCN(c5cccc6c5C(=O)N(C5CCC(=O)NC5=O)C6=O)CC4)C3)CC2)ccc1Nc1ncc2c(n1)N(C1CCCC1)CC(F)(F)C(=O)N2C (stereo not drawn) [Compound 211, 4-((9-cyclopentyl-7,7-difluoro-5-methyl-6-oxo-6,7,8,9-tetrahydro-5H-pyrimido[4,5-b][1,4]diazepin-2-yl)amino)-N-(4-(7-(2-(2,6-dioxopiperidin-3-yl)-1,3-dioxoisoindolin-4-yl)-2,7-diazaspiro[3.5]nonan-2-yl)piperidin-1-yl)-3-methoxybenzamide]",+++ (+++: <0.3),< 0.03 µM,> 10 µM
"COc1cc(C(=O)N[C@H]2CC[C@H](N3CCN(CCOCCNc4cccc5c4C(=O)N(C4CCC(=O)NC4=O)C5=O)CC3)CC2)ccc1Nc1ncc2c(n1)N(C1CCCC1)CC(F)(F)C(=O)N2C (stereo partly drawn) [Compound 194, 4-((9-cyclopentyl-7,7-difluoro-5-methyl-6-oxo-6,7,8,9-tetrahydro-5H-pyrimido[4,5-b][1,4]diazepin-2-yl)amino)-N-((1r,4r)-4-(4-(2-(2-((2-(2,6-dioxopiperidin-3-yl)-1,3-dioxoisoindolin-4-yl)amino)ethoxy)ethyl)piperazin-1-yl)cyclohexyl)-3-methoxybenzamide]",++ (++<0.6),< 0.05 µM,> 10 µM
"COc1cc(C(=O)NC2CCN(C(=O)CCCOc3cccc4c3C(=O)N(C3CCC(=O)NC3=O)C4=O)CC2)c(F)cc1Nc1ncc2c(n1)N(C1CCCC1)CC(F)(F)C(=O)N2C (stereo not drawn) [Compound 30, 4-((9-cyclopentyl-7,7-difluoro-5-methyl-6-oxo-6,7,8,9-tetrahydro-5H-pyrimido[4,5-b][1,4]diazepin-2-yl)amino)-N-(1-(4-((2-(2,6-dioxopiperidin-3-yl)-1,3-dioxoisoindolin-4-yl)oxy)butanoyl)piperidin-4-yl)-2-fluoro-5-methoxybenzamide]",++ (++<0.6),< 0.1 µM,> 10 µM

# From patent US20250114460A1, “NOVEL PLK1 DEGRADATION INDUCING COMPOUND” (UPPTHERA, INC., priority 2021, published 2025)
